The results in this text go back to paper PMC9212912 (Structure (London, England : 1993), 2022).

Data set [1] relates to Calu-3 cells. The following applies: 0.01 µM.
The subject of data set [2] is native human MYST-family HAT complexes purified via MEAF6 (MYST). Kind of data set: In vitro acetyltransferase assay, 3H-acetyl incorporation. The settings on record: 0.5 μg peptide, 3H Ac-CoA, 30 minutes at 30 °C, liquid scintillation. In kind it is biochemical.
Data set [3] concerns human HAT complex NuA4/TIP60. Kind of data set: In vitro acetyltransferase assay. It counts as biochemical.
The test system of data set [4] is native human MYST-family HAT complex purified via BRPF2 (HBO1). Description: In vitro acetyltransferase assay, 3H-acetyl incorporation. The settings on record: 0.5 μg peptide, 3H Ac-CoA, 30 minutes at 30 °C, liquid scintillation. It counts as biochemical.
Data set [5] concerns human HAT complex SAGA. Kind of data set: In vitro acetyltransferase assay. It counts as biochemical.
The target of data set [6] is BRD4 ET domain (Homo sapiens, UniProt O60885). It counts as binding. The settings on record: 20 mM Tris pH 7.0, 100 mM NaCl, 3 mM DTT, 10% D2O.

Turning to `Cc1sc2c(c1C)C(c1ccc(Cl)cc1)=N[C@@H](CC(=O)Nc1ccc(O)cc1)c1nnc(C)n1-2` [OTX015], the Calu-3 cell viability in data set [1] is given as 98%.
Consider “SARS-CoV-2 E^48−72: peptide, aa 48–72 of SARS-CoV-2 E, acetyltransferase substrate (NVSLVKPSFYVYSRVKNLNSSRVPD; UniProt P0DTC4 48-72, looked up, fragment)”, for which, in data set [2], the “Acetylation of the peptide by MYST (MEAF6) complexes” value was “able to some extent acetylate”. The “Acetylation of the peptide by NuA4/TIP60” value in data set [3] was “undetectable”. Besides, in data set [4], the “Acetylation of the peptide by HBO1 (BRPF2) complex” value is recorded as “able to some extent acetylate”. In addition, the “Acetylation of the peptide by SAGA” value in data set [5] is reported as “undetectable”.
As to “SARS-CoV-2 E^53−72: longer non-acetylated peptide, aa 53–72 of SARS-CoV-2 E (KPSFYVYSRVKNLNSSRVPD)”, the “Chemical shift perturbations in BRD4 ET upon peptide addition” value in data set [6] is “did not alter the pattern of CSPs”.
With “SARS-CoV-2 E^57−69: peptide, aa 57–69 of SARS-CoV-2 E (YVYSRVKNLNSSR)”, the “Chemical shift perturbations in BRD4 ET upon peptide addition” value in data set [6] is “small CSPs”.
